Tested on: P12-Ichikawa
Assay: cell viability relative to DMSO control; higher = less cytotoxic
Conditions: 48 h
Procedure, shortened: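 Leukemia cells (NOMO1 or SEM, 500 cells/well; P12-Ichikawa, 1000 cells/well) were seeded in 5 μl in 1536-well plates after at least four passages of adaptation to each medium. They received library compounds in DMSO by pin dosing, 11 threefold points from 47 μM to 0.79 nM. Luminescence with CellTiter-Glo One was read after 48 h at 37°C. Viability is stated per plate relative to DMSO wells, with cell-free wells as background.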

[1] = HPLM + 10% dialyzed FBS, 0.000781 µM
[2] = HPLM + 10% dialyzed FBS, 0.00234 µM
[3] = HPLM + 10% dialyzed FBS, 0.00702 µM
[4] = HPLM + 10% dialyzed FBS, 0.0211 µM
[5] = HPLM + 10% dialyzed FBS, 0.0632 µM
[6] = HPLM + 10% dialyzed FBS, 0.19 µM
[7] = HPLM + 10% dialyzed FBS, 0.569 µM
[8] = HPLM + 10% dialyzed FBS, 1.71 µM
[9] = HPLM + 10% dialyzed FBS, 5.12 µM
[10] = HPLM + 10% dialyzed FBS, 15.4 µM
[11] = HPLM + 10% dialyzed FBS, 46.1 µM
[12] = RPMI 5 mM glucose + 10% FBS, 0.000781 µM
[13] = RPMI 5 mM glucose + 10% FBS, 0.00234 µM
[14] = RPMI 5 mM glucose + 10% FBS, 0.00702 µM
[15] = RPMI 5 mM glucose + 10% FBS, 0.0211 µM
[16] = RPMI 5 mM glucose + 10% FBS, 0.0632 µM
[17] = RPMI 5 mM glucose + 10% FBS, 0.19 µM
[18] = RPMI 5 mM glucose + 10% FBS, 0.569 µM
[19] = RPMI 5 mM glucose + 10% FBS, 1.71 µM
[20] = RPMI 5 mM glucose + 10% FBS, 5.12 µM
[21] = RPMI 5 mM glucose + 10% FBS, 15.4 µM
[22] = RPMI 5 mM glucose + 10% FBS, 46.1 µM
[23] = RPMI 5 mM glucose + 10% dialyzed FBS, 0.000781 µM
[24] = RPMI 5 mM glucose + 10% dialyzed FBS, 0.00234 µM
[25] = RPMI 5 mM glucose + 10% dialyzed FBS, 0.00702 µM
[26] = RPMI 5 mM glucose + 10% dialyzed FBS, 0.0211 µM
[27] = RPMI 5 mM glucose + 10% dialyzed FBS, 0.0632 µM
[28] = RPMI 5 mM glucose + 10% dialyzed FBS, 0.19 µM
[29] = RPMI 5 mM glucose + 10% dialyzed FBS, 0.569 µM
[30] = RPMI 5 mM glucose + 10% dialyzed FBS, 1.71 µM
[31] = RPMI 5 mM glucose + 10% dialyzed FBS, 5.12 µM
[32] = RPMI 5 mM glucose + 10% dialyzed FBS, 15.4 µM
[33] = RPMI 5 mM glucose + 10% dialyzed FBS, 46.1 µM

Compound | cell viability [1] [%] | cell viability [2] [%] | cell viability [3] [%] | cell viability [4] [%] | cell viability [5] [%] | cell viability [6] [%] | cell viability [7] [%] | cell viability [8] [%] | cell viability [9] [%] | cell viability [10] [%] | cell viability [11] [%] | cell viability [12] [%] | cell viability [13] [%] | cell viability [14] [%] | cell viability [15] [%] | cell viability [16] [%] | cell viability [17] [%] | cell viability [18] [%] | cell viability [19] [%] | cell viability [20] [%] | cell viability [21] [%] | cell viability [22] [%] | cell viability [23] [%] | cell viability [24] [%] | cell viability [25] [%] | cell viability [26] [%] | cell viability [27] [%] | cell viability [28] [%] | cell viability [29] [%] | cell viability [30] [%] | cell viability [31] [%] | cell viability [32] [%] | cell viability [33] [%]
C[C@H]1[C@H](NC(=O)/C(=N/OC(C)(C)C(=O)O)c2csc(N)n2)C(=O)N1[S+](=O)([O-])O | 108 | 116 | 109 | 102 | 106 | 117 | 111 | 105 | 109 | 95.3 | 103 | 99.3 | 102 | 97.1 | 102 | 101 | 106 | 101 | 110 | 98.4 | 93.4 | 97.3 | 81.3 | 101 | 101 | 102 | 110 | 102 | 101 | 93.8 | 93.3 | 99.4 | 92.3
CC(C)OC(=O)OCOP(=O)(CO[C@H](C)Cn1cnc2c(N)ncnc21)OCOC(=O)OC(C)C.O=C(O)C=CC(=O)O | 110 | 120 | 73.1 | 125 | 127 | 125 | 125 | 128 | 129 | 126 | 106 | 105 | 132 | 70.9 | 122 | 124 | 122 | 135 | 129 | 129 | 115 | 4.8 | 97.6 | 109 | 85.9 | 115 | 122 | 124 | 124 | 124 | 128 | 121 | 95.2
CNC(=O)c1ccc(-c2cnc3ncc(Cc4ccc5ncccc5c4)n3n2)cc1F | 113 | 119 | 125 | 129 | 136 | 125 | 134 | 120 | 135 | 124 | 126 |  |  |  |  |  |  |  |  |  |  |  |  |  |  |  |  |  |  |  |  |  | 
COC1CCC(CC1)N(C(=O)C2CCC(C)CC2)C3=C(SC(=C3)\C4=C\CCCC4)C(O)=O (centres undefined) | 118 | 118 | 116 | 111 | 108 | 113 | 111 | 104 | 95.3 | 83.5 | 60 | 109 | 112 | 109 | 108 | 92.8 | 106 | 105 | 98.2 | 94.9 | 88.7 | 65.6 | 103 | 105 | 111 | 110 | 101 | 102 | 105 | 97.6 | 98.9 | 77.8 | 63.9
CC1(C)CC(=O)c2c(C(F)(F)F)nn(-c3ccc(C(N)=O)c(NC4CCC(O)CC4)c3)c2C1 (centres undefined) | 90.3 | 87.3 | 85.5 | 82.4 | 90 | 67.1 | 42 | 33.7 | 36.1 | 36.6 | 80.9 | 84 | 93.5 | 85.6 | 77.6 | 82.2 | 48.2 | 32.1 | 25.6 | 27.6 | 28.1 | 84.5 | 84.2 | 81.9 | 81.9 | 73.1 | 80.8 | 44.3 | 28.7 | 30.4 | 25.5 | 27.8 | 73.7
CC1(C)Cc2c(-c3ccccc3)c(-c3ccc(Cl)cc3)c(CC(=O)O)n2C1 | 120 | 118 | 117 | 122 | 118 | 110 | 107 | 112 | 105 | 103 | 95.6 | 115 | 112 | 118 | 118 | 110 | 107 | 111 | 110 | 97.8 | 99.6 | 83.5 | 106 | 108 | 115 | 102 | 107 | 102 | 106 | 104 | 103 | 98.1 | 86
COc1cnc(N[S+](=O)([O-])c2ccc(N)cc2)nc1 | 107 | 118 | 113 | 119 | 122 | 125 | 134 | 126 | 117 | 90.1 | 45.1 | 101 | 109 | 109 | 117 | 118 | 118 | 126 | 130 | 117 | 102 | 59.2 | 111 | 108 | 122 | 119 | 127 | 118 | 128 | 124 | 119 | 104 | 67
CCCCCOC(=O)NC\1=N\C(=O)N(\C=C1F)[C@@H]2O[C@H](C)[C@@H](O)[C@H]2O | 107 | 91.7 | 101 | 103 | 97.1 | 103 | 93.8 | 96.4 | 94.2 | 89.9 | 86.7 | 96.7 | 99.4 | 97.4 | 93.7 | 101 | 91.5 | 92.6 | 93.3 | 89.6 | 77.3 | 84 | 101 | 96.1 | 96.2 | 94.8 | 100 | 93 | 91.2 | 87.2 | 90.1 | 83.8 | 83.8
CC(C)(C)c1cc(NC(=O)Nc2ccc(-c3cn4c(n3)sc3cc(OCCN5CCOCC5)ccc34)cc2)no1 | 88.7 | 99.1 | 97.4 | 108 | 95.3 | 99.4 | 104 | 101 | 94.4 | 101 | 91 | 83.8 | 89.9 | 88.1 | 89.2 | 86 | 88.9 | 86.4 | 82.5 | 82.6 | 80.3 | 85.6 | 93.4 | 91.6 | 93.1 | 88.9 | 96.6 | 92.1 | 101 | 92.4 | 87.7 | 93.8 | 88.5
CC/C(=C(/c1ccc(O)cc1)c1ccc(OCCNC)cc1)c1ccccc1 | 105 | 108 | 110 | 115 | 118 | 94.8 | 104 | 106 | 71.9 | 63 | 68.6 | 116 | 108 | 109 | 108 | 114 | 122 | 113 | 107 | 68.3 | 53.7 | 42 | 115 | 116 | 116 | 117 | 120 | 126 | 119 | 101 | 64.7 | 49.4 | 46.5
CC\1=C(C(\N=C(/N1)C2=CC(=NC=C2)Cl)C3=C(F)C=C(Cl)C=C3)/C(=O)NC4=C(F)C=C5[NH]N=CC5=C4 (centres undefined) | 103 | 103 | 109 | 112 | 111 | 107 | 112 | 115 | 106 | 77.5 | 4.67 | 87.6 | 114 | 118 | 104 | 102 | 113 | 110 | 113 | 110 | 71.6 | 8.24 | 105 | 121 | 110 | 116 | 118 | 118 | 121 | 124 | 112 | 82.9 | 14.7
CCc1cncnc1N1CCN(Cc2nc3cc(C(F)(F)F)ccc3[nH]2)CC1 | 103 | 106 | 100 | 102 | 103 | 102 | 94.1 | 97.9 | 85.7 | 84 | 58 | 101 | 97.6 | 95.2 | 97.2 | 101 | 88.8 | 97.2 | 101 | 88.1 | 74.9 | 44.9 | 96.6 | 105 | 102 | 103 | 95.6 | 97.3 | 96.4 | 101 | 86.5 | 84.7 | 55.3
COC1=CC=CC2=C1C(=NC(=N2)C3=CC=CS3)NN4C(=O)\C=C(C)/C4=O | 94.4 | 98.3 | 104 | 92.5 | 93.2 | 86.5 | 62.2 | 56.8 | 19.7 | 4.94 | 1.01 | 90.6 | 93.7 | 92.2 | 92.9 | 84.7 | 75.4 | 62.8 | 59.7 | 21.3 | 4.06 | 0.767 | 87 | 90.7 | 94.6 | 86.7 | 87.8 | 74.1 | 62.3 | 54.9 | 23.7 | 3.09 | 0.857
C=C(C)[C@@H]1CC[C@]2(C(=O)O)CC[C@]3(C)[C@H](CC[C@@H]4[C@@]5(C)CC[C@H](O)C(C)(C)[C@@H]5CC[C@]43C)[C@@H]12 | 111 | 123 | 120 | 114 | 116 | 111 | 109 | 103 | 99.9 | 99.1 | 97.3 | 108 | 116 | 114 | 109 | 116 | 107 | 119 | 106 | 97.8 | 98.5 | 103 | 114 | 121 | 120 | 110 | 108 | 102 | 111 | 100 | 95.1 | 94.3 | 87.3
CC(C)[C@@H](N(CCCN)C(=O)C1=CC=C(C)C=C1)C/2=N/C3=CC(=CC=C3C(=O)N2CC4=CC=CC=C4)Cl | 97.6 | 12 | 10.4 | 8.9 | 8.1 | 8.2 | 5.86 | 7.66 | 5.88 | 7.47 | 8.59 | 96.2 | 12.6 | 10.8 | 11.7 | 9.51 | 12 | 8.85 | 8.68 | 7.23 | 7.78 | 7.67 | 88.8 | 48.5 | 18.6 | 14.5 | 12.8 | 13.4 | 11.1 | 14.6 | 11.3 | 11.3 | 10.9
CCCCCCCCCCCCCCCCCCCCCCO | 122 | 125 | 118 | 125 | 126 | 126 | 132 | 133 | 127 | 137 | 140 |  |  |  |  |  |  |  |  |  |  |  |  |  |  |  |  |  |  |  |  |  | 

Reference: the supplement of paper PMC11451515
